Each structure is given as a SMILES string.

The record followed here is patent US20160108049A1 (TAKEDA Gmbh, priority 2011, published 2016).

One test addresses T1, PDE4B1 (Homo sapiens, UniProt Q07343).
T1 construct: made in house; host or cells: SF21 insect cells (baculovirus; virus made in SF9 cells, pCR-Bac vector)
The experiment in a line: Inhibition of PDE4 activity (PDE4B1, SPA assay). It counts as biochemical. To be noted: recombinant PDE4B1, 0.5 μM cAMP; read-out: PDE4B1 Inhibitory values measured as -logIC50 (converted). The method, boiled down: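 Baculovirus-expressed enzyme from SF21 cell 1000×g supernatant; substrate 0.5 μM [3H]cAMP in 20 mM Tris pH 7.4, 5 mM Mg2+, 0.1 mg/ml BSA, 10-20% conversion. 5 min preincubation at 37 °C, 15 min reaction, stopped by SPA beads with IBMX; IC50 by non-linear regression.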

For the next test, the target named is T2, human PDE5 (Homo sapiens, UniProt O76074).
T2 construct: from tissue; host or cells: human platelets from fresh donor blood (platelet lysate)
The experiment in a line: Inhibition of PDE5 activity (platelet lysate, SPA assay). To be noted: 0.5 μM cGMP, read-out: PDE5 Inhibitory values measured as -logIC50 (converted). It counts as biochemical. Summed up: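 Human platelet lysate (10,000 g supernatant) served as PDE5 source, with 1 μM motapizone and 10 nM PDE2 inhibitor added, in Tris pH 7.4, 5 mM Mg2+, BSA. Substrate 0.5 μM [3H]cGMP, 10–20% conversion; 5 min preincubation then 15 min at 37 °C, stopped by SPA beads with IBMX. IC50 by non-linear regression.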

T1 sequence (Q07343 whole entry): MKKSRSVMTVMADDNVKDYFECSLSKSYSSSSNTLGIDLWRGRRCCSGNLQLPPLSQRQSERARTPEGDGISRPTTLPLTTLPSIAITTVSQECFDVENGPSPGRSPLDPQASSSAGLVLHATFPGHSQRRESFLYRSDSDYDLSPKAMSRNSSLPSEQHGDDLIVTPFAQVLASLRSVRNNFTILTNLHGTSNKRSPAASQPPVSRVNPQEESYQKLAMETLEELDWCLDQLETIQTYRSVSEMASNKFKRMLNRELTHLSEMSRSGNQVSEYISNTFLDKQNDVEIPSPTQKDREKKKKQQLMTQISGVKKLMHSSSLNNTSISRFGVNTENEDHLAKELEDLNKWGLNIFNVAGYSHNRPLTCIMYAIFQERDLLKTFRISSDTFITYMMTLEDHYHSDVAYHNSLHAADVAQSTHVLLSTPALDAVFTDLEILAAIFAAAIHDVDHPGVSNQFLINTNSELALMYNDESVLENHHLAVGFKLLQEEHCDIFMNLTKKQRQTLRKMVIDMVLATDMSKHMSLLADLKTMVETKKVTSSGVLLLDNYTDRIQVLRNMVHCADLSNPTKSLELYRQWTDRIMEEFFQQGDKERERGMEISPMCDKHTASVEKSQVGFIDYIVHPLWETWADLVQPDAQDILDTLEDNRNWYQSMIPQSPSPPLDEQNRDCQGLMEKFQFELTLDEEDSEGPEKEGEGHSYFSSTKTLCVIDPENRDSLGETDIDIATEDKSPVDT

`COc1ccc(C2=NN(C3CCN(C(=O)[C@@H](C)NC(=O)c4c[nH]c5c(-c6c(OCC7CC7)ccc7c6OCO7)ncnc45)CC3)C(=O)[C@@H]3CCCC[C@H]23)cc1OC` [Example 62, 4-[5-(cyclopropylmethoxy)-1,3-benzodioxol-4-yl]-N-[(2R)-1-{4-[(4aS,8aR)-4-(3,4-dimethoxyphenyl)-1-oxo-4a,5,6,7,8,8a-hexahydrophthalazin-2(1H)-yl]piperidin-1-yl}-1-oxopropan-2-yl]-5H-pyrrolo[3,2-d]pyrimidine-7-carboxamide]: the IC50 at PDE4B1 was under 1 nM; on human PDE5 it was 1 to 10 nM.

Regarding `COc1ccc(C2=NN(C3CCN(C(=O)[C@@H](NC(=O)c4c[nH]c5c(-c6c(OCC7CC7)ccc7c6OCO7)ncnc45)[C@@H](C)O)CC3)C(=O)[C@@H]3CCCC[C@H]23)cc1OC` [Example 63, 4-[5-(cyclopropylmethoxy)-1,3-benzodioxol-4-yl]-N-[(2S,3R)-1-{4-[(4aS,8aR)-4-(3,4-dimethoxyphenyl)-1-oxo-4a,5,6,7,8,8a-hexahydrophthalazin-2(1H)-yl]piperidin-1-yl}-3-hydroxy-1-oxobutan-2-yl]-5H-pyrrolo[3,2-d]pyrimidine-7-carboxamide], the IC50 at PDE4B1 and at human PDE5 was under 1 nM throughout.

Regarding `CC[C@H](NC(=O)c1c(C)[nH]c2c(-c3c(OCC4CC4)ccc4c3OCO4)ncnc12)C(=O)N1CCC(N2N=C(c3ccc(OC)c(OC)c3)[C@H]3CCCC[C@H]3C2=O)CC1` [Example 64, 4-[5-(cyclopropylmethoxy)-1,3-benzodioxol-4-yl]-N-[(2S)-1-{4-[(4aS,8aR)-4-(3,4-dimethoxyphenyl)-1-oxo-4a,5,6,7,8,8a-hexahydrophthalazin-2(1H)-yl]piperidin-1-yl}-1-oxobutan-2-yl]-6-methyl-5H-pyrrolo[3,2-d]pyrimidine-7-carboxamide], the IC50 on PDE4B1 and at human PDE5 was under 1 nM in each case.

In the case of `COc1ccc(C2=NN(C3CCN(C(=O)[C@@H](CCc4ccccc4)NC(=O)c4c[nH]c5c(-c6c(OCC7CC7)ccc7c6OCO7)ncnc45)CC3)C(=O)[C@@H]3CCCC[C@H]23)cc1OC` [Example 65, 4-[5-(cyclopropylmethoxy)-1,3-benzodioxol-4-yl]-N-[(2R)-1-{4-[(4aS,8aR)-4-(3,4-dimethoxyphenyl)-1-oxo-4a,5,6,7,8,8a-hexahydrophthalazin-2(1H)-yl]piperidin-1-yl}-1-oxo-4-phenylbutan-2-yl]-5H-pyrrolo[3,2-d]pyrimidine-7-carboxamide], the IC50 at PDE4B1 and on human PDE5 was under 1 nM throughout.

Turning to `COc1ccc(C2=NN(C3CCN(C(=O)[C@@H](Cc4ccccc4)NC(=O)c4c(C)[nH]c5c(-c6c(OCC7CC7)ccc7c6OCO7)ncnc45)CC3)C(=O)C(C)(C)C2)cc1OC` [Example 66, 4-[5-(cyclopropylmethoxy)-1,3-benzodioxol-4-yl]-N-[(2R)-1-{4-[3-(3,4-dimethoxyphenyl)-5,5-dimethyl-6-oxo-5,6-dihydropyridazin-1(4H)-yl]piperidin-1-yl}-1-oxo-3-phenylpropan-2-yl]-6-methyl-5H-pyrrolo[3,2-d]pyrimidine-7-carboxamide], the IC50 on PDE4B1 and on human PDE5 was under 1 nM throughout.

Regarding `COc1ccc(C2=NN(C3CCN(C(=O)[C@@H](Cc4ccccc4)NC(=O)c4c[nH]c5c(-c6c(OCC7CC7)ccc7c6OCO7)ncnc45)CC3)C(=O)C(C)(C)C2)cc1OC` [Example 67, 4-[5-(cyclopropylmethoxy)-1,3-benzodioxol-4-yl]-N-[(2R)-1-{4-[3-(3,4-dimethoxyphenyl)-5,5-dimethyl-6-oxo-5,6-dihydropyridazin-1(4H)-yl]piperidin-1-yl}-1-oxo-3-phenylpropan-2-yl]-5H-pyrrolo[3,2-d]pyrimidine-7-carboxamide], the IC50 is under 1 nM at PDE4B1 and 1 to 10 nM on human PDE5.

For the compound `COc1cc(OCC2CC2)c(-c2ncnc3c(C(=O)N[C@H](Cc4ccccc4)C(=O)N4CCC(N5N=C(c6ccc(OC)c(OC)c6)CC(C)(C)C5=O)CC4)c[nH]c23)cc1F` [Example 68, 4-[2-(cyclopropylmethoxy)-5-fluoro-4-methoxyphenyl]-N-[(2R)-1-{4-[3-(3,4-dimethoxyphenyl)-5,5-dimethyl-6-oxo-5,6-dihydropyridazin-1(4H)-yl]piperidin-1-yl}-1-oxo-3-phenylpropan-2-yl]-5H-pyrrolo[3,2-d]pyrimidine-7-carboxamide], the IC50 at PDE4B1 and at human PDE5 was 1 to 10 nM throughout.

As to `COc1cc(OCC2CC2)c(-c2ncnc3c(C(=O)N[C@H](Cc4ccccc4)C(=O)N4CCC(N5N=C(c6ccc(OC)c(OC)c6)CC(C)(C)C5=O)CC4)c(C)[nH]c23)cc1F` [Example 69, 4-[2-(cyclopropylmethoxy)-5-fluoro-4-methoxyphenyl]-N-[(2R)-1-{4-[3-(3,4-dimethoxyphenyl)-5,5-dimethyl-6-oxo-5,6-dihydropyridazin-1(4H)-yl]piperidin-1-yl}-1-oxo-3-phenylpropan-2-yl]-6-methyl-5H-pyrrolo[3,2-d]pyrimidine-7-carboxamide], the IC50 at PDE4B1 and on human PDE5 was 1 to 10 nM in each case.

`CC[C@H](C)[C@H](NC(=O)c1c[nH]c2c(-c3c(OCC4CC4)ccc4c3OCO4)ncnc12)C(=O)N1CCC(N2N=C(c3ccc(OC)c(OC)c3)[C@H]3CCCC[C@H]3C2=O)CC1` [Example 71, 4-[5-(cyclopropylmethoxy)-1,3-benzodioxol-4-yl]-N-[(2S,3S)-1-{4-[(4aS,8aR)-4-(3,4-dimethoxyphenyl)-1-oxo-4a,5,6,7,8,8a-hexahydrophthalazin-2(1H)-yl]piperidin-1-yl}-3-methyl-1-oxopentan-2-yl]-5H-pyrrolo[3,2-d]pyrimidine-7-carboxamide]: the IC50 at PDE4B1 is under 1 nM; on human PDE5, 1 to 10 nM.

Take `COc1ccc(C2=NN(C3CCN(C(=O)[C@H](NC(=O)c4c[nH]c5c(-c6c(OCC7CC7)ccc7c6OCO7)ncnc45)C4CCCCC4)CC3)C(=O)[C@@H]3CCCC[C@H]23)cc1OC` [Example 72, N-[(1R)-1-cyclohexyl-2-{4-[(4aS,8aR)-4-(3,4-dimethoxyphenyl)-1-oxo-4a,5,6,7,8,8a-hexahydrophthalazin-2(1H)-yl]piperidin-1-yl}-2-oxoethyl]-4-[5-(cyclopropylmethoxy)-1,3-benzodioxol-4-yl]-5H-pyrrolo[3,2-d]pyrimidine-7-carboxamide]: the IC50 at PDE4B1 was under 1 nM; at human PDE5 it was 1 to 10 nM.

Consider `COc1ccc(C2=NN(C3CCN(C(=O)[C@@H](NC(=O)c4c[nH]c5c(-c6c(OCC7CC7)ccc7c6OCO7)ncnc45)C4CCCCC4)CC3)C(=O)[C@@H]3CCCC[C@H]23)cc1OC` [Example 73, N-[(1S)-1-cyclohexyl-2-{4-[(4aS,8aR)-4-(3,4-dimethoxyphenyl)-1-oxo-4a,5,6,7,8,8a-hexahydrophthalazin-2(1H)-yl]piperidin-1-yl}-2-oxoethyl]-4-[5-(cyclopropylmethoxy)-1,3-benzodioxol-4-yl]-5H-pyrrolo[3,2-d]pyrimidine-7-carboxamide], for which the IC50 on PDE4B1 and on human PDE5 was 1 to 10 nM throughout.

Regarding `COc1ccc(C2=NN(C3CCN(C(=O)[C@H](Cc4cccs4)NC(=O)c4c(C)[nH]c5c(-c6c(OCC7CC7)ccc7c6OCO7)ncnc45)CC3)C(=O)[C@@H]3CCCC[C@H]23)cc1OC` [Example 74, 4-[5-(cyclopropylmethoxy)-1,3-benzodioxol-4-yl]-N-[(2S)-1-{4-[(4aS,8aR)-4-(3,4-dimethoxyphenyl)-1-oxo-4a,5,6,7,8,8a-hexahydrophthalazin-2(1H)-yl]piperidin-1-yl}-1-oxo-3-(thiophen-2-yl)propan-2-yl]-6-methyl-5H-pyrrolo[3,2-d]pyrimidine-7-carboxamide], the IC50 at PDE4B1 and on human PDE5 was under 1 nM each time.

Take `COc1ccc(C2=NN(C3CCN(C(=O)[C@H](Cc4cccs4)NC(=O)c4c[nH]c5c(-c6c(OCC7CC7)ccc7c6OCO7)ncnc45)CC3)C(=O)[C@@H]3CCCC[C@H]23)cc1OC` [Example 75, 4-[5-(cyclopropylmethoxy)-1,3-benzodioxol-4-yl]-N-[(2S)-1-{4-[(4aS,8aR)-4-(3,4-dimethoxyphenyl)-1-oxo-4a,5,6,7,8,8a-hexahydrophthalazin-2(1H)-yl]piperidin-1-yl}-1-oxo-3-(thiophen-2-yl)propan-2-yl]-5H-pyrrolo[3,2-d]pyrimidine-7-carboxamide]: the IC50 on PDE4B1 is under 1 nM; on human PDE5 it was 1 to 10 nM.

In the case of `COc1ccc(C2=NN(C3CCN(C(=O)CCNC(=O)c4c[nH]c5c(-c6c(OCC7CC7)ccc7c6OCO7)ncnc45)CC3)C(=O)[C@@H]3CCCC[C@H]23)cc1OC` [Example 76, 4-[5-(cyclopropylmethoxy)-1,3-benzodioxol-4-yl]-N-(3-{4-[(4aS,8aR)-4-(3,4-dimethoxyphenyl)-1-oxo-4a,5,6,7,8,8a-hexahydrophthalazin-2(1H)-yl]piperidin-1-yl}-3-oxopropyl)-5H-pyrrolo[3,2-d]pyrimidine-7-carboxamide], the IC50 on PDE4B1 and on human PDE5 was 1 to 10 nM in each case.

Turning to `COc1ccc(C2=NN(C3CCN(C(=O)C[C@@H](Cc4ccccc4)NC(=O)c4c[nH]c5c(-c6c(OCC7CC7)ccc7c6OCO7)ncnc45)CC3)C(=O)[C@@H]3CCCC[C@H]23)cc1OC` [Example 77, 4-[5-(cyclopropylmethoxy)-1,3-benzodioxol-4-yl]-N-[(2R)-4-{4-[(4aS,8aR)-4-(3,4-dimethoxyphenyl)-1-oxo-4a,5,6,7,8,8a-hexahydrophthalazin-2(1H)-yl]piperidin-1-yl}-4-oxo-1-phenylbutan-2-yl]-5H-pyrrolo[3,2-d]pyrimidine-7-carboxamide], the IC50 at PDE4B1 and on human PDE5 was 1 to 10 nM throughout.
